Reference: ChEMBL document CHEMBL4330066, “Carbohydrate-naphthalene diimide conjugates as potential antiparasitic drugs: Synthesis, evaluation and structure-activity studies” (Eur J Med Chem, 2019)
Calls of active or inactive are those of the source. The rule behind the calls is not given here.

Key:
Trypanosoma brucei [1] = test: Binding affinity to Trypanosoma brucei EBR1 G-quadruplex DNA assessed as association constant by fluorescence titration assay
Quadruplex DNA [2] = test: Binding affinity to 22AG telomeric G-quadruplex DNA (unknown origin) assessed as association constant by fluorescence titration assay; assay type: nucleic-acid assay
Trypanosoma brucei [3] = test: Trypanocidal activity against Trypanosoma brucei Lister 427, antigenic type MiTat 1.2, clone 221a after 72 hrs by alamarBlue assay; assay type: functional, organism-based; settings: Lister 427, 72 h
Trypanosoma brucei [4] = test: Stabilization of 5'-FAM /3'-Tamra labelled Trypanosoma brucei F21T G-quadruplex DNA in presence of 1 x 10^-5 M dsDNA competitior by FRET melting assay
Trypanosoma brucei [5] = test: Stabilization of 5'-FAM /3'-Tamra labelled Trypanosoma brucei EBR1-FT G-quadruplex DNA in presence of 1 x 10^-5 M dsDNA competitior by FRET melting assay relative to control
[6] = Drug localization in kinetoplast of Trypanosoma brucei at 5 x 10^-6 M after 4 hrs by DAPI staining-based fluorescence confocal microscopy method; assay type: ADME, subcellular; settings: 5 µM
MRC5 = test: Cytotoxicity against human MRC5 cells assessed as reduction in cell viability after 48 hrs by MTT assay; assay type: cell-based; settings: MRC5, 48 h
[7] = Selectivity index, ratio of IC50 for human MRC5 cells to IC50 for Trypanosoma brucei Lister 427, antigenic type MiTat 1.2, clone 221a; assay type: toxicity; settings: MRC5 cells versus Trypanosoma brucei Lister 427, read-out: Ratio IC50
Leishmania major [8] = test: Leishmaniacidal activity against Leishmania major MHOM/IL/80/Friedlin promastigotes after 72 hrs by MTT assay; assay type: functional, organism-based
Trypanosoma brucei [9] = test: Stabilization of 5'-FAM /3'-Tamra labelled Trypanosoma brucei F21T G-quadruplex DNA at 2 x 10^-6 M by FRET melting assay
Quadruplex DNA [10] = test: Stabilization of 22AG telomeric G-quadruplex DNA (unknown origin) assessed as red shift at 8 uM by fluorescence absorption emisssion spectroscopy method; assay type: nucleic-acid assay
Trypanosoma brucei [11] = test: Stabilization of Trypanosoma brucei EBR1 G-quadruplex DNA up to 30 x 10^-6 M by CD titration assay
Quadruplex DNA [12] = test: Stabilization of 22AG telomeric G-quadruplex DNA (unknown origin) assessed as reduction in emission at 8 uM by fluorescence absorption emisssion spectroscopy method; assay type: nucleic-acid assay; set-up: scale not given: the % may be the effect or the level left
[13] = Cytotoxicity against human THP1 cells; assay type: cell-based; settings: THP-1 cells, read-out: TC50 (the source's name)
[14] = Drug uptake in Trypanosoma brucei assessed as reduction in intracellular fluorescence at 5 x 10^-6 M at 4 degreeC incubated for 90 mins by flow cytometric analysis relative to drug uptake at 37 degC; assay type: ADME, cell-based; settings: 1.5 h, 5 µM
Erythrocyte = test: Hemolytic activity in mouse RBC after 1 hr; assay type: ADME, cell-based
[15] = Drug uptake in Trypanosoma brucei assessed as reduction in intracellular fluorescence at 5 x 10^-6 M at 4 to 37 degreeC by flow cytometric analysis; assay type: ADME, cell-based; settings: 5 µM, TDE = time-dependent effect
Trypanosoma brucei [16] = test: Stabilization of 5'-FAM /3'-Tamra labelled Trypanosoma brucei EBR1-FT G-quadruplex DNA at 2 x 10^-6 M by FRET melting assay
Trypanosoma brucei [17] = test: Stabilization of 5'-FAM /3'-Tamra labelled Trypanosoma brucei F21T G-quadruplex DNA in presence of 3 x […] M dsDNA competitior by FRET melting assay
Leishmania major [18] = test: Leishmaniacidal activity against Leishmania major MHOM/IL/80/Friedlin amastigotes infected in human THP1 cells after 72 hrs by luciferase luminescence assay; assay type: functional, organism-based; settings: THP-1, 72 h
[19] = Selectivity index, ratio of TC50 for human THP1 cells to IC50 for Leishmania major MHOM/IL/80/Friedlin amastigotes; assay type: toxicity; settings: THP1 cells versus Leishmania major amastigotes, read-out: Selectivity Index
[20] = Drug localization in nucleus of Trypanosoma brucei at 5 x 10^-6 M after 4 hrs by DAPI staining-based fluorescence confocal microscopy method; assay type: ADME, subcellular; settings: 5 µM
[21] = Drug uptake in Trypanosoma brucei at 5 x 10^-6 M at 37 degC incubated for 90 mins by flow cytometric analysis; assay type: ADME; settings: 1.5 h, 5 µM
Quadruplex DNA [22] = test: Stabilization of 22AG telomeric G-quadruplex DNA (unknown origin) assessed as reduction in emission at 8 uM by fluorescence absorption emisssion spectroscopy method relative to control; assay type: nucleic-acid assay; set-up: scale not given: the % may be the effect or the level left
Trypanosoma brucei [23] = test: Stabilization of 5'-FAM /3'-Tamra labelled Trypanosoma brucei EBR1-FT G-quadruplex DNA assessed as change in melting temperature at 0.5 x 10^-6 M by FRET melting assay
Trypanosoma brucei [24] = test: Stabilization of 5'-FAM /3'-Tamra labelled Trypanosoma brucei EBR1-FT G-quadruplex DNA assessed as impeding of completing melting of DNA at 2 x 10^-6 M by FRET melting assay
Trypanosoma brucei [25] = test: Stabilization of 5'-FAM /3'-Tamra labelled Trypanosoma brucei F21T G-quadruplex DNA assessed as change in melting temperature at 5 x 10^-7 M by FRET melting assay
Trypanosoma brucei [26] = test: Stabilization of 5'-FAM /3'-Tamra labelled Trypanosoma brucei EBR1-FT G-quadruplex DNA assessed as change in melting temperature at 5 x 10^-7 M by FRET melting assay

Compound | Ka (Trypanosoma brucei [1]) | Ka (Quadruplex DNA [2]) | IC50 (Trypanosoma brucei [3]) [nM] | Activity (Trypanosoma brucei [4]) | Activity (Trypanosoma brucei [5]) | Drug uptake [6] | IC50 (MRC5) [nM] | selectivity ratio [7] | IC50 (Leishmania major [8]) [nM] | Activity (Trypanosoma brucei [9]) | Activity (Quadruplex DNA [10]) | Activity (Trypanosoma brucei [11]) | CC50 [13] [nM] | Activity (Erythrocyte) | Activity (Trypanosoma brucei [16]) | Activity (Trypanosoma brucei [17]) | IC50 (Leishmania major [18]) [nM] | selectivity ratio [19] | Drug uptake [20] | further results
CN(C)CCCN1C(=O)c2ccc3c4c(c(NCCCn5cc(CCO[C@@H]6O[C@H](CO)[C@@H](O)[C@H](O)[C@H]6O)nn5)cc(c24)C1=O)C(=O)N(CCCN(C)C)C3=O | 1.2 ×10⁶ /M | 9.2 ×10⁵ /M | 60 | Active | Active | Active | 450 | 7.5 | 70 | Active | 10 nm | Active | 2180 | Non-Toxic | Active | inactive | 720 | 3 | Active | Activity (Quadruplex DNA [12]): 10%; Drug uptake [14]: 36%; Drug uptake [15]: Tde; Drug uptake [21]: Active
CN(C)CCCc1cc2c3c(c(NCCCn4cc(CCO[C@@H]5O[C@H](CO)[C@@H](O)[C@H](O)[C@H]5O)nn4)cc4c3c1C(=O)N(CCCN(C)C)C4=O)C(=O)N(CCCN(C)C)C2=O | 1 ×10⁷ /M | 4.4 ×10⁶ /M | 240 | Active | inactive | Active | 7250 | 30.2 | 9770 | inactive | – | Active | – | Non-Toxic | – | inactive | – | – | Active | Activity (Quadruplex DNA [22]): 40%; ΔTm (Trypanosoma brucei [23]): 24 °C; Activity (Trypanosoma brucei [24]): Active; ΔTm (Trypanosoma brucei [25]): 22.1 °C; ΔTm (Trypanosoma brucei [26]): 11.5 °C
CN(C)CCCN1C(=O)c2ccc3c4c(c(NCCCn5cc(COCCOCCOCCO[C@@H]6O[C@H](CO)[C@@H](O)[C@H](O)[C@H]6O)nn5)cc(c24)C1=O)C(=O)N(CCCN(C)C)C3=O | 6.9 ×10⁵ /M | 4.8 ×10⁵ /M | 440 | Active | Active | Active | 730 | 1.6 | 480 | Active | Active | Active | 1860 | – | Active | inactive | 480 | 3.9 | Active | –
CN(C)CCCN1C(=O)c2ccc3c4c(c(NCCCn5cc(COCCOCCOCCO[C@@H]6O[C@H](CO)[C@@H](O[C@@H]7O[C@H](CO)[C@H](O)[C@H](O)[C@H]7O)[C@H](O)[C@H]6O)nn5)cc(c24)C1=O)C(=O)N(CCCN(C)C)C3=O | 1.1 ×10⁶ /M | 8.4 ×10⁵ /M | 40 | Active | Active | Active | 240 | 6 | 170 | Active | Active | Active | 5710 | – | Active | inactive | 530 | 10.8 | Active | –
